Test results as given in patent publication US5869650A, “Dendroamide compounds and their use in chemosensitizing multidrug resistant cells” (Fox Chase Cancer Center, priority 1996, dated 1999).
“Also recorded” adds a separate entry of the source.

Columns and labels:
P-glycoprotein [1] = target: T1, P-glycoprotein (Homo sapiens, UniProt P08183)
MCF-7/ADR cells = test: Chemosensitization of MCF-7/ADR cells (sulforhodamine binding assay, cell killing by anticancer drugs); type: cell-based
Experimental: FIGS. 2A and 2B show the chemosensitization of MCF-7/ADR breast carcinoma cells by Compound A. In FIG. 2A, MCF-7/ADR cells were treated with the indicated concentrations of Compound A in the presence of 15 μM daunomycin (.quadrature.), 200 nM actinomycin D (Δ) or 4 μM cisplatin (.largecircle.). In FIG. 2B, MCF-7 cells (.diamond-solid.) or MCF-7/ADR cells treated with 1% ethanol (.diamond.), 0.6 (.quadrature.) or 2.5 μM of Compound A (Δ) were incubated with the indicated concentrations of vinblastine.
The ability of Compound A to reverse MDR was examined using MCF-7/ADR cells breast carcinoma cells which were obtained as described in Example 5. The effects of Compound A on cell growth were characterized using the sulforhodamine binding assay (P. Skehan et al., J. Natl. Cancer Inst. 82:1107-1112 (1990)) as described in C. D. Smith et al., Oncology Res. 6:211-218 (1994) and C. D. Smith et al., Mol. Pharm. 45:241-247 (1995). Cell survival was assessed after 48 hours of treatment and was expressed as the percentage of cells killed.
The results of the chemosensitization tests showing the effect of the MDR reversing agent Compound A on cell killing by anticancer drugs in the multiple drug resistant MCF-7/ADR cells are shown in FIGS. 2A and 2B. The MCF-7/ADR cells were treated with the indicated concentrations of Compound A in the presence of daunomycin, actinomycin D and or cisplatin. Values shown in FIGS. 2A and 2B represent the mean±standard deviation for triplicate samples in one of two similar experiments.

[2] = test system: MCF-7/VP cells (express multidrug resistance-related protein (MRP)); test: Chemosensitization of MCF-7/VP cells (sulforhodamine binding assay, cytotoxicity of anticancer drugs)
MCF-7 cells = test: [3H]vinblastine accumulation in MCF-7 cells; type: cell-based; conditions: parental MCF-7 cells
Experimental: D. Smith et al., Mol. Pharm.
[^3 H]vinblastine was then added and its intracellular accumulation after 60 minutes was determined.

[3] = test system: MCF-7/ADR cells (overexpress P-glycoprotein); test: [3H]vinblastine accumulation in MCF-7/ADR cells; type: cell-based
Experimental: The reduction in intracellular accumulation of anticancer drugs due to expression of P-glycoprotein can be at least partially reversed by compounds which interact with the drug transporter.
D. Smith et al., Mol. Pharm. 45:241-247 (1995), using 20 nm [^3 H]vinblastine sulfate (10-15 Ci/mmole) from the Amersham Corporation.
[^3 H]vinblastine was then added and its intracellular accumulation after 60 minutes was determined. Values shown in FIG. 1 represent the mean ± standard deviation accumulation of [^3 H]vinblastine in triplicate samples in one of three similar experiments.

P-glycoprotein [4] = target: T1, P-glycoprotein; test: biochemical
MDR cells = conditions: cited from earlier work
[5] = Tsuruo et al., Cancer Res. 41:1967 (1981)

T1 sequence (P08183 whole entry): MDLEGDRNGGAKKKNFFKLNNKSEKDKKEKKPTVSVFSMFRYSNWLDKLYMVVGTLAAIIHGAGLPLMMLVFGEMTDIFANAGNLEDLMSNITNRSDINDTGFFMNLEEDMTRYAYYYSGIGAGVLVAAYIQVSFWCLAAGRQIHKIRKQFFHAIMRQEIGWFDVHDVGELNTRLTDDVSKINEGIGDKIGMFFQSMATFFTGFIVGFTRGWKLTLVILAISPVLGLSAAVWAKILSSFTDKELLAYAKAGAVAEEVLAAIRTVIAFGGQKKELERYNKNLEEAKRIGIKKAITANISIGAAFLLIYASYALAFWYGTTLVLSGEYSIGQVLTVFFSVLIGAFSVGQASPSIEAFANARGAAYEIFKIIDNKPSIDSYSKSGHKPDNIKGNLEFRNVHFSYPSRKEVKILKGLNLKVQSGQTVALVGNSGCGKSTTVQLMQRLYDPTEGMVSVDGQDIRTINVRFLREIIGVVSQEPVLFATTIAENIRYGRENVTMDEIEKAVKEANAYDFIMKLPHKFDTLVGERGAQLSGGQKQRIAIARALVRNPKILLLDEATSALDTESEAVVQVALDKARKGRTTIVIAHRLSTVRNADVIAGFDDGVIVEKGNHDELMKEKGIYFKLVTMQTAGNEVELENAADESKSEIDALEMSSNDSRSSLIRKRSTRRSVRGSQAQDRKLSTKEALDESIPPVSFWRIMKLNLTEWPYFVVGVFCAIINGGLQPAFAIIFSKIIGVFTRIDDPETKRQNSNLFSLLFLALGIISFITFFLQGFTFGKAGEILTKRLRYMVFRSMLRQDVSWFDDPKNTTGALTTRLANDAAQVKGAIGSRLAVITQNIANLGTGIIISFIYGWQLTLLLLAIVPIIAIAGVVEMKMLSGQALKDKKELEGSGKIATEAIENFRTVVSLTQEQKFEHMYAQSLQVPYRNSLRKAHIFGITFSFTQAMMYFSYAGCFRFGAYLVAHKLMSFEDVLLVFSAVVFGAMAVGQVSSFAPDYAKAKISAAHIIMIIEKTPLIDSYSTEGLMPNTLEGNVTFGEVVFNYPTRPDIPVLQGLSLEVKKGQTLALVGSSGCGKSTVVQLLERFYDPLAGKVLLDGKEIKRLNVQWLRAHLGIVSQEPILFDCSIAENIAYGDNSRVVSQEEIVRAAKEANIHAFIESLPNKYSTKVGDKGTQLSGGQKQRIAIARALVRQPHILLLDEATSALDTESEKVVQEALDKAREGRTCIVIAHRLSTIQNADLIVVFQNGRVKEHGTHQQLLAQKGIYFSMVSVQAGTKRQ

Row | binding of [3H]azidopine to P-glycoprotein (in words) (P-glycoprotein [1]) | IC50 (P-glycoprotein [4]) [nM] | SMILES | active concentrations for chemosensitization (in words) (MCF-7/ADR cells; daunomycin or actinomycin D, FIG. 2A) | reversal of P-glycoprotein-mediated MDR (in words) (MCF-7/ADR cells; vinblastine, FIG. 2B) | effect on cell killing by actinomycin D (MCF-7/ADR cells; with actinomycin D (200 nM in FIG. 2A), 48 hours) | effect on cytotoxicity of cisplatin (MCF-7/ADR cells; with cisplatin (4 μM in FIG. 2A), 48 hours) | effect on cell killing by daunomycin (MCF-7/ADR cells; with daunomycin (15 μM in FIG. 2A), 48 hours) | effect on cell killing by vinblastine (MCF-7/ADR cells; with vinblastine, 48 hours) | reversal of MRP-mediated resistance to vincristine (in words) ([2]; MCF-7/VP cells, 10 μM, 48 hours) | effect on responses to cisplatin ([2]; MCF-7/VP cells, with cisplatin) | effect on accumulation of [3H]vinblastine (in words) (MCF-7 cells) | ability to increase the accumulation of [3H]vinblastine (in words) ([3]; Compound A compared with verapamil) | activity at 5 µM ([3]; Homo sapiens, NCI/ADR-RES, 1 h, 5 μM, 30 min preincubation, accumulation after 60 min, FIG. 1) [%] | EC (maximal effect) ([3]; Homo sapiens, NCI/ADR-RES, 1 h, FIG. 1, read-out: concentration of maximal effect on [3H]vinblastine accumulation) [µM] | intracellular accumulation of anticancer drugs (in words) (MDR cells; [5]) | sensitization of MDR cells to anticancer drugs (in words) (MDR cells; [5]) | reversing activity in cultured cells (in words) (MDR cells; cultured cells) | fold resistance of MCF-7/VP cells in comparison with MCF-7 cells ([2]; vincristine, MCF-7/VP vs MCF-7 cells) [fold]
1 | progressive decreases in binding | 500 | Cc1oc2nc1C(=O)N[C@H](C(C)C)c1nc(cs1)C(=O)N[C@H](C)c1nc(cs1)C(=O)N[C@@H]2C [Compound A, Cyclo-D-Val-Tzl-D-Ala-Tzl-D-Ala-mOzl] | activity at submicromolar concentrations | completely overcomes P-glycoprotein-mediated MDR | killed more effectively; also recorded: markedly potentiating cell killing | did not alter the cytotoxicity of cisplatin | killed more effectively; also recorded: markedly potentiating cell killing | markedly potentiating cell killing | fully reversed; also recorded: fully reverses MRP-mediated resistance | did not modulate responses to cisplatin | Neither Compound A nor verapamil increased the accumulation | more potent than verapamil; also recorded: strongly enhanced | 750 | 20 | – | – | – | –
2 | – | – | COc1ccc(CCN(C)CCCC(C#N)(c2ccc(OC)c(OC)c2)C(C)C)cc1OC (stereo not shown) [verapamil] | – | – | – | – | – | – | – | – | Neither Compound A nor verapamil increased the accumulation | – | – | – | promote intracellular accumulation of those drugs | sensitize MDR cells to anticancer drugs | potent and effective reversing agent | –
3 | – | – | CC[C@]1(O)C[C@H]2CN(CCc3c([nH]c4ccccc34)[C@@](C(=O)OC)(c3cc4c(cc3OC)N(C=O)[C@H]3[C@@](O)(C(=O)OC)[C@H](OC(C)=O)[C@]5(CC)C=CCN6CC[C@]43[C@@H]65)C2)C1 [vincristine, reference compound] | – | – | – | – | – | – | – | – | – | – | – | – | – | – | – | 15
